Experimental data reported in patent US9376436B2, “2-(pyridin-2yl)-1, 7-diaza-spiro [4.4] nonane-6-one compound as voltage-gated sodium channels modulators” (CONVERGENCE PHARMACEUTICALS LIMITED, priority 2011, dated 2016).
Where a name gives a salt, the structure may show the parent alone. Read-outs that look alike come from different tables or passages of the source.

Molecular target: T1, hNaV1.7 (Homo sapiens, UniProt Q15858)
T1 construct: expressed in transfected cells; host or cells: HEK293
T1 sequence (Q15858 whole entry): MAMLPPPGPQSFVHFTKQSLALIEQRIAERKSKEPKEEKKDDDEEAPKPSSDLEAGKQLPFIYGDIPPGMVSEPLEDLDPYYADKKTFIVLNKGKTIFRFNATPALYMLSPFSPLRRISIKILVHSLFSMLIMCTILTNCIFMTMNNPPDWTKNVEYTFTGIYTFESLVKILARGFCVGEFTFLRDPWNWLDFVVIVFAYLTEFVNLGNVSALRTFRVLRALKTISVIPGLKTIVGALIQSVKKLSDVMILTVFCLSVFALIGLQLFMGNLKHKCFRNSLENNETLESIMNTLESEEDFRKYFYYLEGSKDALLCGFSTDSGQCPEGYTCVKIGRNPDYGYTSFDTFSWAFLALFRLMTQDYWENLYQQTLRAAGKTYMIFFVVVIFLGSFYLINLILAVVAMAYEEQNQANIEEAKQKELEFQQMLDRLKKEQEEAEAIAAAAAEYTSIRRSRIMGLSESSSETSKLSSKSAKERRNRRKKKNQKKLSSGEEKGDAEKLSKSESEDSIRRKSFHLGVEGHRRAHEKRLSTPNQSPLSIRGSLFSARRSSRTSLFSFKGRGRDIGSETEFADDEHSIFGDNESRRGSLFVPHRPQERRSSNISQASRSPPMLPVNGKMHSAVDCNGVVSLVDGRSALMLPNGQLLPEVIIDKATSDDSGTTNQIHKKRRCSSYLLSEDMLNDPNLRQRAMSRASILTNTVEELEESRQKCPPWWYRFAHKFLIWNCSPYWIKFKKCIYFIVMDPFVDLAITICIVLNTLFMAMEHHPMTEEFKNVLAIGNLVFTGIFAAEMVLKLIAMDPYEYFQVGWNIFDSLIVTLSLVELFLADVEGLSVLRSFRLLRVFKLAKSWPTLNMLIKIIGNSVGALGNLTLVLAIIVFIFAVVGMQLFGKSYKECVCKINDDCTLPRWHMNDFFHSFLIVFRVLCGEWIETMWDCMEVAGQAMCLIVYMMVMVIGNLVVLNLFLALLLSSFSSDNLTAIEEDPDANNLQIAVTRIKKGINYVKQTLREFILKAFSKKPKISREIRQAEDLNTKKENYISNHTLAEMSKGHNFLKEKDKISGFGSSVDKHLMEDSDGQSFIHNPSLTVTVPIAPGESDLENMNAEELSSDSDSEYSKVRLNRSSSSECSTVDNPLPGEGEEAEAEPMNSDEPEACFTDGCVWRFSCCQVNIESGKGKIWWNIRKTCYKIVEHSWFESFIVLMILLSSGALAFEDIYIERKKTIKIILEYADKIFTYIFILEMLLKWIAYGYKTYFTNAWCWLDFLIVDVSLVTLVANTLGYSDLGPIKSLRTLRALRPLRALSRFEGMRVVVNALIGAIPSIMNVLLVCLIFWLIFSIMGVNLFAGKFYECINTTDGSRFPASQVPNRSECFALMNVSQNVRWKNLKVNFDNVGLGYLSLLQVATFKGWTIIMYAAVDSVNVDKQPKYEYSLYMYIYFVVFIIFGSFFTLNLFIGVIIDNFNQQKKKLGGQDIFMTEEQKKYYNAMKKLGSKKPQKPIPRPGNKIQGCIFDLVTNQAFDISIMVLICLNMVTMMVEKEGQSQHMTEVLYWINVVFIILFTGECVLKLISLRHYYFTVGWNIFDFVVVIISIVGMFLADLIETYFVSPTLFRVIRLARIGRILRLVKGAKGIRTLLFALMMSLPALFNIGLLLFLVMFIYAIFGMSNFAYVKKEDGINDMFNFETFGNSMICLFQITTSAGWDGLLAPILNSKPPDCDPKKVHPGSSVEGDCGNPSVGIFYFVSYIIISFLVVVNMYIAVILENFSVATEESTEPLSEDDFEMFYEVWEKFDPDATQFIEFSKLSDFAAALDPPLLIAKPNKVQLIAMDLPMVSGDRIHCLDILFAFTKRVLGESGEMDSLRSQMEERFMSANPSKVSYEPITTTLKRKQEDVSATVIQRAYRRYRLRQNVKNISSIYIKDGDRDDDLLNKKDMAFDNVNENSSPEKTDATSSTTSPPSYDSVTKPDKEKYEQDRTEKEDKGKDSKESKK
Experiment: QPatch NaV1.7 assay (whole-cell patch clamp, QPatch16x)
Assay type: cell-based
Settings: HEK293-hNaV1.7 cells
Experimental: The compounds of the invention were tested in a QPatch NaV1.7 assay.
HEK293-hNaV1.7 cells were grown in DMEM-F12+10% FBS culture media at 37° C. At a confluency of 50-70% cells were dissociated from culture flasks & triturated to ensure unicellular cell suspension; cell density was measured & adjusted to 2-3×10^6 cells/ml. Recordings were obtained using QPatch16x. The external solution was (in mM): NaCl, 128; KCl, 5; MgCl2, 2; CaCl2, 2; Glucose, 30; HEPES, 15; pH 7.3, 305-315 mOsm. Following seal formation and whole-cell access using internal solution (containing in mM: CsF, 135; EGTA/CsOH, 1/5; HEPES 10; NaCl, 10; pH 7.3, 310-320 mOsM), voltage pulse protocols were applied. Initially a steady state inactivation voltage protocol was used to determine the half-maximal voltage for steady state inactivation (V1/2 SSI). Two holding voltages were used to determine test drug inhibition: −90 mV, where most of the channels are in a closed state; and V1/2 SSI, where half of the channels are inactivated. Currents were elicited […] by stepping to a membrane potential of 0 mV for 20 ms. Four-point cumulative concentration responses were derived by determining the peak current amplitude at each concentration of test drug over 120 second application. Curves were fitted with the Hill equation yielding pIC50 values at −90 mV and V1/2 SSI holding potentials.

[1] = holding voltage V1/2 SSI (half of channels inactivated), read-out: QP Nav1.7 SSI vhalf pIC50 (converted)
[2] = holding voltage −90 mV (most channels closed), read-out: QP Nav1.7 −90 mV pIC50 (converted)

With `CCOc1ccc(F)c(-c2ccnc([C@@H]3CC[C@@]4(CCN(C)C4=O)N3)c2C)c1` [Example 214, (2S,5S)-2-[4-(5-Ethoxy-2-fluoro-phenyl)-3-methyl-2-pyridyl]-7-methyl-1,7-diazaspiro[4.4]nonan-6-one hydrochloride] the IC50 [1] was 3.98 µM and the IC50 [2] was 31.6 µM.
In the case of `CCOc1ccc(F)c(-c2cc(OC)nc([C@@H]3CC[C@@]4(CCN(C)C4=O)N3)c2)c1` [Example 249, (2S,5S)-2-[4-(5-Ethoxy-2-fluoro-phenyl)-6-methoxy-2-pyridyl]-7-methyl-1,7-diazaspiro[4.4]nonan-6-one hydrochloride], the IC50 [1] is reported as 1.26 µM and the IC50 [2] is reported as 15.8 µM.
Molecule `CN1CCC[C@]2(CC[C@@H](c3cc(-c4ccc(F)cc4)ccn3)N2)C1=O` [Example 73, (2S,5S)-2-[4-(4-Fluoro-phenyl)-pyridin-2-yl]-7-methyl-1,7-diaza-spiro[4.5]decan-6-one hydrochloride] has an IC50 [1] of 20 µM and an IC50 [2] of 200 µM.
With `O=C1NCCC[C@@]12CC[C@@H](c1cc(-c3ccc(C(F)(F)F)cc3)ccn1)N2` [Example 48, (2S,5R)-2-[4-(4-Trifluoromethyl-phenyl)-pyridin-2-yl]-1,7-diaza-spiro[4.5]decan-6-one hydrochloride] the IC50 [1] was 2 µM and the IC50 [2] was 25.1 µM.
Work on `CN1CC[C@@]2(CC[C@H](c3cc(-c4cccc5[nH]ncc45)ccn3)N2)C1=O` [Example 187, (2R,5S)-2-[4-(1H-Indazol-4-yl)-2-pyridyl]-7-methyl-1,7-diazaspiro[4.4]nonan-6-one hydrochloride] yielded an IC50 [1] of 200 µM and an IC50 [2] of 1000 µM.
`CN1CC[C@@]2(CC[C@H](c3cc(-c4ccc5c(c4)CCO5)ccn3)N2)C1=O` [Example 166, (2R,5S)-2-[4-(2,3-Dihydrobenzofuran-5-yl)-2-pyridyl]-7-methyl-1,7-diazaspiro[4.4]nonan-6-one hydrochloride] gave an IC50 [1] of 126 µM and an IC50 [2] of 2000 µM.
Work on `CN1CC[C@@]2(CC[C@H](c3cc(-c4ccccc4)ccn3)N2)C1=O` [Example 6, (2R,5S)-7-Methyl-2-(4-phenyl-pyridin-2-yl)-1,7-diaza-spiro[4.4]nonan-6-one hydrochloride] yielded an IC50 [1] of 31.6 µM and an IC50 [2] of 158 µM.
Molecule `Cc1cc(-c2cc(C(F)(F)F)ccc2C(N)=O)cc([C@@H]2CC[C@@]3(CCN(C)C3=O)N2)n1` [Example 25, 2-[2-Methyl-6-[(2S,5S)-7-methyl-6-oxo-1,7-diazaspiro[4.4]nonan-2-yl]-4-pyridyl]-4-(trifluoromethyl)benzamide hydrochloride] has an IC50 [1] of 1580 µM.
Molecule `COc1cnc([C@@H]2CC[C@]3(CCN(C)C3=O)N2)cc1-c1ccc(C(F)(F)F)cc1` [Example 153, (2S,5R)-2-[5-Methoxy-4-[4-(trifluoromethyl)phenyl]-2-pyridyl]-7-methyl-1,7-diazaspiro[4.4]nonan-6-one hydrochloride] has an IC50 [1] of 12.6 µM and an IC50 [2] of 158 µM.
In the case of `Cc1c(-c2ccc(F)cc2)ccnc1[C@@H]1CC[C@]2(CCN(C)C2=O)N1` [Example 18, (2S,5R)-7-Methyl-2-[3-methyl-4-[4-fluorophenyl]-2-pyridyl]-1,7-diazaspiro[4.4]nonan-6-one hydrochloride], the IC50 [1] is reported as 31.6 µM and the IC50 [2] is reported as 794 µM.
`CCOc1ccc(F)c(-c2cc(C)nc([C@H]3CC[C@@]4(CCNC4=O)N3)c2)c1` [Example 104, (2R,5S)-2-[4-(5-Ethoxy-2-fluoro-phenyl)-6-methyl-2-pyridyl]-1,7-diazaspiro[4.4]nonan-6-one hydrochloride] gave an IC50 [1] of 0.158 µM and an IC50 [2] of 1.58 µM.
`CN1CC[C@@]2(CC[C@H](c3cc(-c4cc(-c5ccnn5C)ccc4F)ccn3)N2)C1=O` [Example 192, (2R,5S)-2-[4-[2-Fluoro-5-(2-methylpyrazol-3-yl)phenyl]-2-pyridyl]-7-methyl-1,7-diazaspiro[4.4]nonan-6-one hydrochloride] showed an IC50 [1] of 1000 µM.
`COc1cc(C(F)(F)F)ccc1-c1cc([C@@H]2CC[C@@]3(CCN(C)C3=O)N2)ncc1C` [Example 132, (2S,5S)-2-[4-[2-Methoxy-4-(trifluoromethyl)phenyl]-5-methyl-2-pyridyl]-7-methyl-1,7-diazaspiro[4.4]nonan-6-one hydrochloride] showed an IC50 [1] of 39.8 µM and an IC50 [2] of 251 µM.
`CN1[C@H](c2cc(-c3ccc(C(F)(F)F)cc3)ccn2)CC[C@]12CCCNC2=O` [Example 230, hydrochloride] showed an IC50 [1] of 1.26 µM and an IC50 [2] of 25.1 µM.
Molecule `CCOc1cc(-c2cc(C)nc([C@H]3CC[C@@]4(CCN(C)C4=O)N3)c2)ccc1F` [Example 125, hydrochloride] has an IC50 [1] of 25.1 µM and an IC50 [2] of 158 µM.
With `COc1ccc(-c2ccnc([C@H]3CC[C@@]4(CCN(C)C4=O)N3)c2)cc1OC` [Example 163, (2R,5S)-2-[4-(3,4-Dimethoxyphenyl)-2-pyridyl]-7-methyl-1,7-diazaspiro[4.4]nonan-6-one hydrochloride] the IC50 [2] was 7940 µM.
For `Cc1cc(-c2ccc(C(F)(F)F)cc2)cc([C@@H]2CC[C@@]3(CCCNC3=O)N2)n1` [Example 101, (2S,5R)-2-[6-Methyl-4-(4-trifluoromethyl-phenyl)-pyridin-2-yl]-1,7-diaza-spiro[4.5]decan-6-one hydrochloride], the IC50 [1] was 10 µM and the IC50 [2] was 12.6 µM.
Molecule `CN1CC[C@@]2(CC[C@@H](c3cc(-c4ccc(C(F)(F)F)cc4)c(OC(C)(C)C)cn3)N2)C1=O` [Example 63, (2S,5S)-2-[5-tert-Butoxy-4-[4-(trifluoromethyl)-phenyl]-2-pyridyl]-7-methyl-1,7-diazaspiro[4.4]nonan-6-one hydrochloride] has an IC50 [1] of 10 µM and an IC50 [2] of 79.4 µM.
`CN1CC[C@@]2(CC[C@@H](c3cc(-c4ccc(C(F)(F)F)cc4)c(F)cn3)N2)C1=O` [Example 59, (2S,5S)-2-[5-Fluoro-4-[4-(trifluoromethyl)phenyl]-2-pyridyl]-7-methyl-1,7-diazaspiro[4.4]nonan-6-one hydrochloride] showed an IC50 [1] of 3.16 µM and an IC50 [2] of 100 µM.
Work on `Cc1c(-c2ccc(C(F)(F)F)cc2)ccnc1[C@@H]1CC[C@]2(CCN(C)C2=O)N1` [Example 15, (2S,5R)-7-Methyl-2-[3-methyl-4-[4-(trifluoromethyl)phenyl]-2-pyridyl]-1,7-diazaspiro[4.4]nonan-6-one hydrochloride] yielded an IC50 [1] of 6.31 µM and an IC50 [2] of 25.1 µM.
Molecule `Cc1cc(-c2ccc(C(F)(F)F)cc2)cc([C@H]2CC[C@@]3(CCN(C)C3=O)N2)n1` [Example 28, (2R,5S)-7-Methyl-2-[6-methyl-4-[4-(trifluoromethyl)phenyl]-2-pyridyl]-1,7-diazaspiro[4.4]nonan-6-one hydrochloride] has an IC50 [1] of 5.01 µM and an IC50 [2] of 31.6 µM.
In the case of `O=C1NCC[C@]12CC[C@@H](c1cc(-c3cccc(OC(F)(F)F)c3)ccn1)N2` [Example 116, (2S,5R)-2-[4-[3-(Trifluoromethoxy)phenyl]-2-pyridyl]-1,7-diazaspiro[4.4]nonan-6-one hydrochloride], the IC50 [1] is reported as 10 µM and the IC50 [2] is reported as 79.4 µM.
In the case of `CN1CC[C@@]2(CC[C@H](c3cc(-c4cccc(OC(F)(F)F)c4)ccn3)N2)C1=O.Cl` [Example 1, (2R,5S)-7-Methyl-2-[4-[3-(trifluoromethoxy)phenyl]-2-pyridyl]-1,7-diazaspiro[4.4]nonan-6-one hydrochloride], the “QP Nav1.7 SSI vhalf pIC50” value (holding voltage V1/2 SSI (half of channels inactivated)) is reported as 5.5.
`CCOc1cc(-c2cc(C)nc([C@H]3CC[C@@]4(CCN(C)C4=O)N3)c2)c(F)cc1C` [Example 202, (2R,5S)-2-[4-(5-Ethoxy-2-fluoro-4-methyl-phenyl)-6-methyl-2-pyridyl]-7-methyl-1,7-diazaspiro[4.4]nonan-6-one hydrochloride] was tested, and the IC50 [1] was 3.16 µM and the IC50 [2] was 31.6 µM.
`COc1cnc([C@H]2CC[C@@]3(CCN(C)C3=O)N2)cc1-c1ccc(C(F)(F)F)cc1` [Example 155, (2R,5S)-2-[5-Methoxy-4-[4-(trifluoromethyl)phenyl]-2-pyridyl]-7-methyl-1,7-diazaspiro[4.4]nonan-6-one hydrochloride] gave an IC50 [1] of 3.98 µM and an IC50 [2] of 39.8 µM.
Work on `CN1CC[C@@]2(CC[C@H](c3cc(-c4ccc(C(F)(F)F)cc4F)ccn3)N2)C1=O` [Example 12, (2R,5S)-2-[4-[2-Fluoro-4-(trifluoromethyl)phenyl]-2-pyridyl]-7-methyl-1,7-diazaspiro[4.4]nonan-6-one hydrochloride] yielded an IC50 [1] of 10 µM and an IC50 [2] of 50.1 µM.
With `CN1CC[C@@]2(CC[C@H](c3cc(-c4cn(C)c5ccccc45)ccn3)N2)C1=O` [Example 157, (2R,5S)-7-Methyl-2-[4-(1-methyl-1H-indol-3-yl)-pyridin-2-yl]-1,7-diaza-spiro[4.4]nonan-6-one hydrochloride] the IC50 [1] was 25.1 µM and the IC50 [2] was 79.4 µM.
For `CN1CC[C@@]2(CC[C@H](c3cc(-c4cccc(C(F)(F)F)c4)ccn3)N2)C1=O` [Example 75, (2R,5S)-7-Methyl-2-[4-[3-(trifluoromethyl)phenyl]-2-pyridyl]-1,7-diazaspiro[4.4]nonan-6-one hydrochloride], the IC50 [1] was 20 µM and the IC50 [2] was 126 µM.
Molecule `CN1CC[C@@]2(CC[C@H](c3cc(-c4cc(OCCF)ccc4F)ccn3)N2)C1=O` [Example 251, (2R,5S)-2-[4-[2-Fluoro-5-(2-fluoroethoxyl)phenyl]-2-pyridyl]-7-methyl-1,7-diazaspiro[4.4]nonan-6-one hydrochloride] has an IC50 [1] of 39.8 µM and an IC50 [2] of 398 µM.
